Data on one compound can be found in patent US6417210B1 (MOR-Research Applications Ltd., priority 1998, dated 2002).

One data set concerns baboons. To be noted: induced by 3-nitropropionic acid, Palfi et al. 1997; cited from earlier work.
Data set [1] concerns patients suffering from advanced Parkinson's disease with severe levodopa-induced dyskinesias.
Protocol: The patients were given optimal anti-parkinsonian drug treatment during the three months prior to the clinical trial. Duration of study was six weeks. First two weeks served to accumulate baseline data. Patients filled up dyskinesias diaries in which they marked at every waking hour whether involuntary movements were present and their severity (mild/moderate and severe). […] The dose was then increased to 25 mg, b.i.d. for additional four days (once in the morning and once in the early afternoon). The dose as then further increased to two 50 mg tablets (total of 100 mg. daily) which the patients took for three additional weeks. They continued to fill up their dyskinesias diaries throughout the trial period.

Each structure is given as a SMILES string.

In the case of `Nc1nc2ccc(OC(F)(F)F)cc2s1` [Riluzole, 2-amino-6-trifluoromethoxy benzothiazole], the Abnormal motor movement entry with baboons is “reduces various abnormal motor movement”. Besides, in data set [1] (riluzole up to 50 mg b.i.d.), the Adverse effects entry is “no report of adverse-effects” and the Tolerability result is “well-tolerated”. In data set [1] (when patients took riluzole), the “Efficacy of levodopa and other anti-parkinsonian drugs and total daily time spent in "on" periods” value was “no decrease”; the “Worsening of the parkinsonian signs and symptoms” value is “no worsening”.
